Data on 4 compounds can be found in patent US11203577B2, “Sulfonyl-structure-containing triazinone derivatives, their preparation methods and their uses in insect killing and/or bacterium killing” (Nankai University, priority 2017, dated 2021).

One data set concerns Rice sheath blight. Kind of data set: In vitro fungicidal activity, PDA colony diameter. The class given is cell-based. Conditions: 50 mg/kg, inhibition of colony diameter; read-out: Fungicidal activity (%) Rice sheath blight.
The subject of a further data set is Watermelon anthracnose. Kind of data set: In vitro fungicidal activity, PDA colony diameter. As to conditions: 50 mg/kg, inhibition of colony diameter; read-out: Fungicidal activity (%) Watermelon anthracnose. Format: cell-based.
Data set [1] relates to Corn southern leaf blight. The experiment in a line: In vitro fungicidal activity, PDA colony diameter. The class given is cell-based. Conditions: 50 mg/kg, inhibition of colony diameter; read-out: Fungicidal activity (%) Corn southern leaf blight.
In data set [2] the test system is Capsicum phytophthora blight. Kind of data set: In vitro fungicidal activity, PDA colony diameter. The class given is cell-based. As to conditions: 96 h. In short, it runs like this:
(§1)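 Mycelial plugs cut from the edge of 7-day PDA colonies placed on PDA containing 50 mg/kg compound or on compound-free PDA, grown 4 days. Colony diameters measured; percent inhibition calculated against untreated control.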

The subject of the next data set is Apple ring rot. The experiment in a line: In vitro fungicidal activity, PDA colony diameter. The class given is cell-based. Conditions: inhibition of colony diameter. Put shortly:
as §1

For data set [3], the system named is bean aphides (Aphis laburni Kaltenbach). Kind of data set: Test of insecticidal activity against aphides (leaf immersion, checked after 96 h). As to conditions: Aphis, 96 h, read-out: Mortalities (%) against aphides.
In another data set the test system is Armyworms. The experiment in a line: Test of insecticidal activity against armyworms (leaf immersion). As to conditions: 600 mg/kg, 3-4 days.
A further data set relates to Potato late blight. The experiment in a line: microbe, parasite or virus in culture. The class given is cell-based. Conditions: Phytophthora infestans, 96 h, read-out: Fungicidal activity (%) Potato late blight.
In a further data set the test system is Cotton bollworms. The experiment in a line: Test of insecticidal activity against cotton bollworms (pesticide mixed into feedstuff). As to conditions: read-out: Mortalities (%) Cotton bollworms.
Another data set has as its system Rice bakanae disease. Kind of data set: In vitro fungicidal activity, PDA colony diameter. As to conditions: read-out: Fungicidal activity (%) Rice bakanae disease. The class given is cell-based.
The test system of another data set is Wheat head blight. The experiment in a line: whole plant or invertebrate. Format: cell-based. As to conditions: Triticum aestivum, read-out: Fungicidal activity (%) Wheat head blight.
In another data set the test system is Wheat sheath blight. Kind of data set: In vitro fungicidal activity, PDA colony diameter. Format: cell-based. Conditions: 50 mg/kg, inhibition of colony diameter; read-out: Fungicidal activity (%) Wheat sheath blight.
A further data set deals with Tomato early blight. Kind of data set: In vitro fungicidal activity, PDA colony diameter. The class given is cell-based, Alternaria solani. Conditions: 50 mg/kg, inhibition of colony diameter; read-out: Fungicidal activity (%) Tomato early blight.
The test system of another data set is Sclerotinia rot of colza. Kind of data set: In vitro fungicidal activity, PDA colony diameter. Format: cell-based. Conditions: 96 h, 50 mg/kg, inhibition of colony diameter, read-out: Fungicidal activity (%) Sclerotinia rot of colza.
The next data set has as its system Maize borers. The experiment in a line: Test of insecticidal activity against maize borers (leaf immersion). Conditions: read-out: Mortalities (%) Maize borers.
For another data set, the system named is Cucumber fusarium wilt. The experiment in a line: In vitro fungicidal activity, PDA colony diameter. The class given is cell-based. Conditions: 96 h, 50 mg/kg, inhibition of colony diameter, read-out: Fungicidal activity (%) Cucumber fusarium wilt.
For data set [4], the system named is mosquito larvae (Culer pipiens pallens). Kind of data set: Test of insecticidal activity against mosquito larvae (checked after 24 h). As to conditions: 24 h, read-out: Mortalities (%) against mosquito larvae.
Data set [5] deals with Cercospora brown spot of peanut. Kind of data set: In vitro fungicidal activity, PDA colony diameter. Format: cell-based. Conditions: 96 h, 50 mg/kg, inhibition of colony diameter, read-out: Fungicidal activity (%) Cercospora brown spot of peanut.
Data set [6] deals with a variety of pathogenic fungi. The experiment in a line: In vitro fungicidal activity, summary over the tested fungi. Format: cell-based. As to conditions: 50 mg/kg. The procedure:
Here, the test is described in an example of Alternaria solani; it can be replaced by other fungi.
In vitro testing method: Alternaria solani is inoculated to a PDA culture medium and cultured for 7 days, a fungus dish with a diameter of […] is prepared on the periphery of the colony with a punch and inoculated to a PDA culture medium that contains pesticide at a concentration of 50 mg/kg and a PDA culture medium that doesn't contain the pesticide, and are cultured for 4 days respectively; then, the colony diameters are measured, and the inhibition percentages of the pesticides are calculated by comparing with the control sample.

Where [7] appears, read: 50 mg/kg, inhibition of colony diameter.

Read-outs that look alike come from different tables or passages of the source.

Protocol for Cotton bollworms: Method of testing against cotton bollworms: the pesticide is mixed into the feedstuff, i.e., 3 mL prepared solution is added into about 27 g freshly prepared feedstuff; thus, required concentration is obtained by diluting by 10 times.

Take `CCCCS(=O)(=O)NN1CC(C)=NNC1=O` [Ia-4, N-(6-methyl-3-oxo-2,3-dihydro-1,2,4-triazin-4(5H)-yl)-n-butylsulfonamide]: the inhibition at 50 mg/kg in the data set with Rice sheath blight turned out to be 34.9%; with Watermelon anthracnose it was 25%; in data set [1], 33.3%; in the data set on Apple ring rot, 31%; with Rice bakanae disease (setting [7]) it was 38.9%; in the data set on Wheat head blight it was 6.7%. Besides, the inhibition at 50 mg/kg in the data set with Wheat sheath blight is 70.5%; with Tomato early blight it was 14.3%. Also, the inhibition of growth at 50 mg/kg in data set [2] turned out to be 46.9%; in the data set on Potato late blight, 40.7%; in the data set on Sclerotinia rot of colza, 48.3%; with Cucumber fusarium wilt, 0%; in [5] it was 15.8%. Further, the mortality at 10 mg/kg in [3] and in data set [4] was 20% each time. For the same compound, the mortality at 100 mg/kg in data set [3] was determined as 70%. The mortality at 600 mg/kg in data set [3] was determined as 85%; in the data set with Cotton bollworms, 0%; in the data set on Maize borers it was 5%. Also, in the data set with Armyworms, the “Mortalities (%) Armyworms” value is 5%. Further, the “fungicidal activity against a variety of pathogenic fungi” value (“fungicidal activity against a variety” below) in data set [6] is recorded as “outstanding fungicidal activity”.

Turning to `CC1=NNC(=O)N(NS(=O)(=O)c2ccc(C)cc2)C1` [Ia-12, 4-methyl-N-(6-methyl-3-oxo-2,3-dihydro-1,2,4-triazin-4(5H)-yl)-benzenesulfonamide], the inhibition at 50 mg/kg in the data set with Rice sheath blight amounted to 27%; in the data set on Watermelon anthracnose it was 33.3%; in [1] it was 33.3%; in the data set with Apple ring rot it was 41.4%; in the data set with Rice bakanae disease (setting [7]), 27.8%; in the data set on Wheat head blight it was 13.3%. Moreover, the inhibition at 50 mg/kg with Wheat sheath blight turned out to be 72.7%; in the data set with Tomato early blight, 33.3%. Moreover, the inhibition of growth at 50 mg/kg is 40.8% in [2]; 29.6% in the data set with Potato late blight; 70% with Sclerotinia rot of colza; 25% in the data set on Cucumber fusarium wilt; 42.1% in data set [5]. In addition, the mortality at 2.5 mg/kg in data set [3] is 30%. For the same compound, the mortality at 5 mg/kg in data set [3] and in data set [4] was 100% each time. For the same compound, the mortality at 10 mg/kg in data set [3] and in data set [4] was 100% throughout. The mortality at 100 mg/kg in data set [3] stood at 100%. Moreover, the mortality at 600 mg/kg in [3] was determined as 100%; in the data set with Cotton bollworms, 30%; with Maize borers it was 10%. Also, the “Mortalities (%) Armyworms” value in the data set on Armyworms is 15%. The mortality at 2 mg/kg in data set [4] came to 10%. Moreover, the “fungicidal activity against a variety” value in data set [6] was “outstanding fungicidal activity”.

In the case of `CC1=NNC(=O)N(NS(=O)(=O)c2c(C)cc(C)cc2C)C1` [Ia-13, 2,4,6-trimethyl-N-(6-methyl-3-oxo-2,3-dihydro-1,2,4-triazin-4(5H)-yl)-benzenesulfonamide], the inhibition at 50 mg/kg with Rice sheath blight was 11.6%; in the data set with Watermelon anthracnose, 24.6%; in data set [1], 28.1%; in the data set on Apple ring rot it was 10.8%; with Rice bakanae disease (setting [7]), 13.8%; in the data set on Wheat head blight it was 16.2%. The inhibition at 50 mg/kg in the data set with Wheat sheath blight was 4.3%; in the data set on Tomato early blight it was 9%. Further, the inhibition of growth at 50 mg/kg in data set [2] turned out to be 22.2%; with Potato late blight, 25%; in the data set with Sclerotinia rot of colza, 21%; in the data set on Cucumber fusarium wilt, 0%; in data set [5], 12%. The mortality at 2.5 mg/kg in data set [3] came to 10%. Further, the mortality at 5 mg/kg in data set [3] was 60%; in data set [4] it was 100%. Also, the mortality at 10 mg/kg in data set [3] and in data set [4] was 100% throughout. The mortality at 100 mg/kg in data set [3] was found to be 100%. Further, the mortality at 600 mg/kg was found to be 100% in [3], 30% in the data set on Cotton bollworms and 45% in the data set on Maize borers. Also, the “Mortalities (%) Armyworms” value in the data set with Armyworms came to 65%. Moreover, in data set [4], the mortality at 2 mg/kg is 20%.

On to `CC1=NNC(=O)N(N(S(=O)(=O)c2ccccc2)S(=O)(=O)c2ccccc2)C1` [Ib-5, N-(6-methyl-3-oxo-2,3-dihydro-1,2,4-triazin-4(5H)-yl)-N-(benzenesulfonyl)-benzenesulfonamide], for which the inhibition at 50 mg/kg in the data set on Rice sheath blight amounted to 27%; in the data set with Watermelon anthracnose, 20.8%; in [1] it was 25%; in the data set on Apple ring rot, 44.8%; with Rice bakanae disease, 22.2%; in the data set on Wheat head blight, 10%. For the same compound, the inhibition at 50 mg/kg in the data set with Wheat sheath blight amounted to 68.2%; in the data set with Tomato early blight, 38.1%. Further, the inhibition of growth at 50 mg/kg in data set [2] is 42.9%; in the data set on Potato late blight it was 22.2%; in the data set with Sclerotinia rot of colza, 40%; in the data set with Cucumber fusarium wilt, 15%; in [5], 36.8%. Further, the mortality at 5 mg/kg in [3] came to 10%. Further, the mortality at 10 mg/kg stood at 50% in [3] and 60% in data set [4]. Besides, the mortality at 100 mg/kg in data set [3] was 90%. For the same compound, the mortality at 600 mg/kg in data set [3] is 100%; with Cotton bollworms, 20%; in the data set on Maize borers, 25%. In addition, the “Mortalities (%) Armyworms” value in the data set on Armyworms was 40%. In data set [6], the “fungicidal activity against a variety” value is given as “outstanding fungicidal activity”.
